From article PMC10303687 (Protein Science : A Publication of the Protein Society, 2023)
“Also recorded” adds a separate entry of the source. Ends that are not written are not given here.

Key:
[1] = molecular target: T1, MDM2 H. sapiens (SWIB domain) (Homo sapiens, UniProt Q00987); experiment: Stopped-flow binding kinetics (kon, koff; KD = koff/kon); settings: 10°C; for koff: pre-formed complex 1 μM:1 μM displaced by 10–20 μM dansylated human p53TAD, pH 7.4, SD of two or three replicates; for kon: pH 7.4, MDM2 H. sapiens 0.5–2 μM mixed with 1–10 μM p53TAD, kobs vs concentration, pH 7.4, curve fitting error
T1 construct: The reconstructed MDM2 variants used in the present study correspond to residues 17–125 of human MDM2; N-terminal fusion: NusA-TEV-His6-PreScission (pSY10) or His6-GST-PreScission (pETM33); made in house; host or cells: Escherichia coli BL21 (DE3) pLys or BL21 (DE3)
T1 sequence (Q00987 17-125): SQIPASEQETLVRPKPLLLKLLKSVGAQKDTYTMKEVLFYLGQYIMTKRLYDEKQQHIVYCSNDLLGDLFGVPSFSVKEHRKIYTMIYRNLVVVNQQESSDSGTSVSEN

[2] = molecular target: T2, MDM2 D. rerio (SWIB domain) (Danio rerio, UniProt O42354); experiment: as above; settings: for kon: MDM2 D. rerio 0.5–2 μM mixed with 1–10 μM peptide, curve fitting error; for kon / koff: pH 7.4; for koff: complex 1 μM:1 μM displaced by 10–20 μM dansylated human p53TAD, SD of two or three replicates
T2 construct: N-terminal fusion: NusA-TEV-His6-PreScission (pSY10) or His6-GST-PreScission (pETM33); made in house; host or cells: Escherichia coli BL21 (DE3) pLys or BL21 (DE3)
T2 sequence (O42354 19-102 limits assumed): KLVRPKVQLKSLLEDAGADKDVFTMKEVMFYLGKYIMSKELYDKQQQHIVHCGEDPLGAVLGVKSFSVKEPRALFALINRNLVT

[3] = molecular target: T2, MDM2 D. rerio (SWIB domain); experiment: Fluorescence polarization displacement of FITC-labeled human p53TAD 15–26 (IC50 to KD/Ki); type: binding; settings: FP displacement; low constant FITC-labeled p53TADHuman and MDM2 D. rerio, displaced by excess peptide; room temperature, pH 7.4; KD calculated from IC50; mean ± SEM
Procedure: FP can detect weak affinities (K D values in the high μM range), although the accuracy is lower than for the other methods. In FP experiments we observed direct binding using a FITC‐labeled p53TAD peptide and used unlabeled peptides containing the binding motif to displace the labeled one. FP experiments were performed at room temperature using the same buffer as kinetic experiments. […] The polarization was measured at excitation/emission wavelengths of 485/535 nm on a SpectraMax iD5 plate reader. […] Errors were calculated as standard error of mean (SEM) of calculated K D values for the displacer peptides resulting from independent fit of IC50 values for the replicate measurements. […]
Supplementary Excel File 2. […] IC50 values were determined as described in the materials section. The theory behind the conversion of IC50 values to Ki values (=KD) is described in Nikolovska-Coleska, et al., Development and optimization of a binding assay for the XIAP BIR3 domain using fluorescence polarization. […]

[4] = molecular target: MDM2 T. adhaerens (SWIB domain); experiment: as above; type: binding, Trichoplax adhaerens; settings: FP displacement, FITC-labeled p53TAD H. sapiens 15–26 6 or 10 nM and MDM2 T. adhaerens 50 μM constant, dilution series of native p53TAD, room temperature, pH 7.4
Procedure: FP can detect weak affinities (K D values in the high μM range), although the accuracy is lower than for the other methods. In FP experiments we observed direct binding using a FITC‐labeled p53TAD peptide and used unlabeled peptides containing the binding motif to displace the labeled one. FP experiments were performed at room temperature using the same buffer as kinetic experiments. For saturation experiments the FITC labeled human peptide was held at a constant concentration of 6 or 10 nM and mixed with the 1:1 dilution series of different MDM2 proteins (the highest concentration of proteins were 89, 37, 50, 22, and 7.3 μM for T. adhaerens, M. trossulus, I. scapularis, L. camtschaticum and H. sapiens MDM2, respectively) in black, non‐binding surface, flat bottom 96‐well plates (Corning Life Sciences). The polarization was measured at excitation/emission wavelengths of 485/535 nm on a SpectraMax iD5 plate reader. […] The resulting displacement curve was fit to a sigmoidal dose‐response (variable slope) equation to obtain an IC50 value, which was in turn used to calculate K D values for the competing peptides as described previously(Nikolovska‐Coleska et al., [2004]) (Excel File 2 in Data S1). Errors were calculated as standard error of mean (SEM) of calculated K D values for the displacer peptides resulting from independent fit of IC50 values for the replicate measurements.
Supplementary Excel File 1. Sequences of constructs used in the experiments. The sequence and name for each interaction motif in p53TAD and MDM2 SWIB domain used in binding experiments in the study.
Supplementary Excel File 2. Calculation of Ki from IC50 values. IC50 values were determined as described in the materials section. The theory behind the conversion of IC50 values to Ki values (=KD) is described in Nikolovska-Coleska, et al., Development and optimization of a binding assay for the XIAP BIR3 domain using fluorescence polarization. […]
p53TAD. The posterior probability is shown for each amino acid for each position for the […]
Supplementary Text File 1. Fasta file for p53TAD. […]

| kon [1] [M⁻¹ s⁻¹] | Substance | koff ([1]; MDM2 H. sapiens) [s⁻¹] | other results |
| --- | --- | --- | --- |
| 2.73e+07 ± 700000 | Ac-SQESFSDLWNLL [p53TADFishes/Tetrapods ^AltAll] | 0.52 ± 0.04 | – |
| 4.2e+07 ± 2e+06 | Ac-SQETFSDLWNLL [p53TADReptiles/Mammals ^ML] | 0.32 ± 0.04 | – |
| 3.8e+07 ± 2e+06 | Ac-SQETFSDLWNML [p53TADReptiles/Mammals ^AltAll] | 0.36 ± 0.01 | – |

More lines, now with the values behind:

| Substance | kon [1] [M⁻¹ s⁻¹] | koff ([1]; MDM2 H. sapiens) [s⁻¹] | other results |
| --- | --- | --- | --- |
| Ac-SQETFNHLWNML [p53TAD1R ^ML] | 1.67e+07 ± 900000 | 1.37 ± 0.06 | – |
| Ac-DSQEFAELWEKN (N-terminus assumed) [p53TAD D. rerio ^14–26] | – | – | K D ([2]; MDM2 D. rerio, KD = koff/kon, stopped-flow, 10°C, 20 mM sodium phosphate pH 7.4, 150 mM NaCl, 1 mM TCEP, propagated error): absence of interaction; also recorded: non‐measurable affinity |
| Ac-GQDVLNQLLEML [p63TAD D. rerio] | – | – | Kd [3]: 130 ± 2 µM |
| GPMGMSDEPTLSQLSFSQELSSSWQLMIDEITQGKFNTNEDEGTAIYSYSEQNPDDRYLMRPNEPQYISAGYPDGQVGQLPREFAVNQIPSPRTFSDNVSSSADKAREAYYGQAVNGVSAETSPPLKRDP [full-length p53TAD, residues 1–126 of T. adhaerens p53] | – | – | K D [4]: did not show binding; K D ([4]; listed as full‐length p53TAD): failed to displace; K D ([4]; listed as full‐length p53TAD from T. adhaerens): no binding |
| Ac-SQETFDFLWKSL [p53TADBilateria ^AltAll] | 1.5e+07 ± 1e+06 | 2.6 ± 0.3 | – |
| Ac-SQETFNHLWNTL [p53TADBilateria ^ML] | 1.9e+07 ± 1e+06 | 11 ± 2 | – |
| Ac-SQDTFSDLWNQL [p53TAD1R ^AltAll] | 2.9e+07 ± 2e+06 | 0.7 ± 0.04 | – |
| Ac-SQETFSDLWNML [p53TADFishes/Tetrapods ^ML] | – | – | kon ([2]; stopped-flow, 10°C): 2.46e+07 ± 800000 M⁻¹ s⁻¹; koff ([2]; MDM2 D. rerio, 10°C): 2.3 ± 0.2 s⁻¹ |
| Ac-EGPTFEHLWSTL [p73TAD D. rerio] | – | – | Kd [2]: 0.12 ± 0.01 µM; kon ([2]; stopped-flow, 10°C): 3.2e+07 ± 1e+06 M⁻¹ s⁻¹; koff ([2]; MDM2 D. rerio, 10°C): 3.7 ± 0.06 s⁻¹ |
| Ac-SQETFEYLWNTL [p53TAD M. trossulus] | – | – | K D ([1]; MDM2 H. sapiens, KD = koff/kon, Trp fluorescence ex 280 nm/em 330 ± 25 nm, 20 mM sodium phosphate pH 7.4, 150 mM NaCl, 1 mM TCEP, propagated error, 12-mers show non-native high affinity): high affinity |
